Experimental data reported in US20240293466A1, “DIFFERENTIAL CXCR4 […] HEMATOPOIETIC PROGENITOR CELLS VERSUS STEM CELLS DIRECTS HOMING AND LONG-TERM ENGRAFTMENT” (priority 2021, published 2024).

Key:
[1] = target: CXCR4 (Homo sapiens, UniProt P61073)
Description: 6- to 14-week-old NOD.Cg-Prkdc^scid Il2rg^tm1Wjl/SzJ (NSG) mice were used in UCB- and MPB-derived HSPC transplant experiments. Mice were irradiated with 280 cGy prior to transplant. For homing experiments, each mouse received 3×10^6 CD34+cells and 16-22 hours post-injection, the mice were sacrificed and bone marrow from the femurs was analyzed for human cell content. For long-term engraftment experiments, mice received limiting dilution CD34+or CD34+CD38−HSPC doses. IV injections were done by injecting HSPC in 200-250 μL via tail vein and IBM injections were done by injecting HSPC in 10 μL into the femur.
The cells were washed with PBS and transplanted into NSG mice for homing experiments.
CD34+cells were transduced with a blue fluorescent protein (BFP) encoding LV vector and the CD34+CD38+BFP+HPC were sorted by flow cytometry.

[2] = tested on: CD34+CD38- HSC-enriched cells; test: Long-term (24 week) engraftment of transduced CD34+CD38- cells in NSG mice; type: in vivo, human; details: 24 weeks
Text: (§1) Mice were irradiated with 280 cGy prior to transplant.
At 12 weeks following transplant, bone marrow was harvested via aspirate of the femur for in vivo engraftment analysis. For animals that received IBM injections into one femur, the non-injected alternate femur was aspirated. For 24 week and homing analysis, mice were sacrificed, and bone marrow was harvested from both the rear and forelimbs. Cells were stained fresh with the following antibodies: PerCP anti-human CD45 (BioLegend 304026), Anti-human CD33 PE-Cy7 (eBioscience 25-0338-42), APC-Cy7 Mouse Anti-Human CD19 (BD 557791), Anti-Human CD3 PE (BD BioSciences 555340), and APC Mouse Anti-Human CD34 (BD BioScience 555824). Red bloods cells were lysed after staining using red blood cell lysis buffer.
Next, CD34+CD38−HSC-enriched cells were sorted, transduced with GFP LV^CXCR4 vector or GFP LV control vector, and transplanted them IV or IBM in two limiting dilutions to irradiated NSG mice to assess engraftment of the long-term repopulating HSC at 6 months post-transplant (FIG. 5F-5G). […] The slightly higher engraftment of untransduced IV transplanted cells (FIGS. 5F and 10C) was likely because LV preparations often contain some defective viral particles, which, like VLP, would deliver CXCR4 protein but not result in an effective transduction (transgene transfer or GFP+cells). […]

[3] = tested on: MPB CD34+ HSPC / CD34+CD38- cells; test: Gene transfer efficiency of LV vectors in HSPC; type: cell-based, human
Description: UCB and G-CSF MPB were obtained and CD34+HSPC were isolated by magnetic selection with Indirect CD34 Microbead kit, human (Miltenyi, 130-046-701). CD34+purity was >95% as confirmed by flow cytometry. CD34+CD38−cells were isolated from G-CSF MPB by magnetic selection with CD34+CD38−Isolation Kit, human (Miltenyi, 130-114-822) and cryopreserved. Thawed CD34+ or CD34+CD38−cells were cultured in X-VIVO 10 (Lonza BE02-055Q) or SCGM (CellGenix 20806-0500) supplemented with 2% human serum albumin, 100 ng/mL TPO, 300 ng/mL SCF, and 300 ng/mL FLT3-L (all cytokines purchased from Peprotech) at a cell density of 2-5×10^6 CD34+cells/mL. Media was supplemented with Birb 796 (600 nM) (Selleckchem) throughout culture and Prostaglandin E2 (10 μM) (Cayman) at plating, transduction, and 1 hour before harvest. Cells were transduced with a lentiviral vector in culture for 36-42 hours where indicated. CD34+HSPC were transduced at a final concentration of 5×10^7-1×10^8 IU/mL. Following culture, CD34+HSPC were harvested and washed with PBS, resuspended in PBS, and used in in vivo or in vitro experiments, as described below.

[4] = tested on: CD34+CD38- HSC-enriched cells; test: CXCR4 expression (flow cytometry MFI) on sorted transduced cells at time of transplant; type: cell-based, human; details: CD34+CD38-BFP+ cells, 72 hours after gene transfer
Text: All LV vectors were packaged using the Gag-Pol, Rev and VSV-G envelope plasmids. All vectors were under the control of the MNDU3 promoter. The GFP LV construct was pRRL.SIN.cPPT.MNDU3.eGFP.WPRE. The BFP LV construct was designed by replacing the GFP cDNA in pRRL.SIN.cPPT.MNDU3.eGFP.WPRE.with mTag2BFP. The BFP-CXCR4 LV was pRRL.SIN.cPPT.MNDU3.mTag2BFP-CXCR4.WPRE. All lentiviral vectors were packaged in HEK 293T (ATCC) cells and vector titers determined in the murine erythroleukemia (MEL) (ATCC) cells as previously described (Perumbeti et al., Blood, 2009; Urbinati et al., Mol Ther, 2009; Arumugam et al., Mol Ther, 2009). […]
An alternative explanation for the competitive homing and engraftment advantage of HPC could be that they comprise the vast majority of CD34+HSPC (98-99%), while HSC are a small minority. It was experimentally conferred the HSC-enriched CD34+CD38− population with slightly higher CXCR4 expression than the CD34+CD38+HPC and assessed homing (FIG. 3D). […] CXCR4 expression on these populations was assessed before transplant. […] The sorted BFP-HPC population was then mixed with the BFP+CD34+CD38−CXCR4^high HSC-enriched cell population in ratios seen in CD34+HSPC prior to sorting, and transplanted them either IV or IBM, and homing of the CD34+CD38−BFP+CXCR4^high HSC-enriched cells was assessed. […]

[5] = tested on: CD34+CD38- HSC-enriched cells; test: Homing of CD34+CD38-BFP+ cells mixed with CD34+CD38+ HPC in NSG mice; type: in vivo, human; details: 20-22 hours
Text: as §1
An alternative explanation for the competitive homing and engraftment advantage of HPC could be that they comprise the vast majority of CD34+HSPC (98-99%), while HSC are a small minority. It was experimentally conferred the HSC-enriched CD34+CD38− population with slightly higher CXCR4 expression than the CD34+CD38+HPC and assessed homing (FIG. 3D). The CD34+HSPC were transduced with a BFP-CXCR4-encoding LV vector or a BFP-encoding LV control vector and CD34+CD38−BFP+HSC-enriched cells were sorted along with untransduced CD34+CD38+BFP−HPC. CXCR4 expression on these populations was assessed before transplant. In control cells, CXCR4 expression on the more primitive CD34+CD38−cells was much lower (MFI 16,930) than on CD34+CD38+HPC (MFI 35,098) (FIG. 3E), consistent with prior data (see, e.g., FIG. 2D). […] The sorted BFP-HPC population was then mixed with the BFP+CD34+CD38−CXCR4^high HSC-enriched cell population in ratios seen in CD34+HSPC prior to sorting, and transplanted them either IV or IBM, and homing of the CD34+CD38−BFP+CXCR4^high HSC-enriched cells was assessed. Control CD34+CD38−BFP+cells were also mixed with CD34+CD38+BFP−HPC and transplanted IV or IBM (FIG. 3D) and their homing into bone marrow was assessed. […]

[6] = target: T1, VLA-4 (Homo sapiens, UniProt P05556+P13612); test: Homing of CD34+CD38+ HPC into bone marrow of NSG mice after VLA-4 blockade; type: in vivo; details: IV or IBM delivery; HPC pre-treated with 1 μM BIO5192
T1 construct: endogenous in cells; host or cells: human G-CSF mobilized peripheral blood CD34+CD38+BFP+ HPC, sorted after transduction with a BFP-only LV vector
Description: as §1
CD34+HSPC were resuspended in PBS containing 1 μM BIO5192 (Tocris, 5051) and incubated on ice for 20 minutes.

Sequence of CXCR4 (P61073 whole entry): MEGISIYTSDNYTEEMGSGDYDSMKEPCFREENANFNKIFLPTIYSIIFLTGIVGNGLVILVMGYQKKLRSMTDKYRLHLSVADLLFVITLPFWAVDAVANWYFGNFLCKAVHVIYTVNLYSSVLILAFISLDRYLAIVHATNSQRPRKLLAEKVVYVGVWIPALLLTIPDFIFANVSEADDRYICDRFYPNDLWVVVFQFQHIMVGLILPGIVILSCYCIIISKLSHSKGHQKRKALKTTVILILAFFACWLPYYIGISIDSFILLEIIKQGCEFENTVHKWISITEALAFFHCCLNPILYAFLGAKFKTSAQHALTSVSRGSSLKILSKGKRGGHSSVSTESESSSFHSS
T1 sequence (P13612 34-1032): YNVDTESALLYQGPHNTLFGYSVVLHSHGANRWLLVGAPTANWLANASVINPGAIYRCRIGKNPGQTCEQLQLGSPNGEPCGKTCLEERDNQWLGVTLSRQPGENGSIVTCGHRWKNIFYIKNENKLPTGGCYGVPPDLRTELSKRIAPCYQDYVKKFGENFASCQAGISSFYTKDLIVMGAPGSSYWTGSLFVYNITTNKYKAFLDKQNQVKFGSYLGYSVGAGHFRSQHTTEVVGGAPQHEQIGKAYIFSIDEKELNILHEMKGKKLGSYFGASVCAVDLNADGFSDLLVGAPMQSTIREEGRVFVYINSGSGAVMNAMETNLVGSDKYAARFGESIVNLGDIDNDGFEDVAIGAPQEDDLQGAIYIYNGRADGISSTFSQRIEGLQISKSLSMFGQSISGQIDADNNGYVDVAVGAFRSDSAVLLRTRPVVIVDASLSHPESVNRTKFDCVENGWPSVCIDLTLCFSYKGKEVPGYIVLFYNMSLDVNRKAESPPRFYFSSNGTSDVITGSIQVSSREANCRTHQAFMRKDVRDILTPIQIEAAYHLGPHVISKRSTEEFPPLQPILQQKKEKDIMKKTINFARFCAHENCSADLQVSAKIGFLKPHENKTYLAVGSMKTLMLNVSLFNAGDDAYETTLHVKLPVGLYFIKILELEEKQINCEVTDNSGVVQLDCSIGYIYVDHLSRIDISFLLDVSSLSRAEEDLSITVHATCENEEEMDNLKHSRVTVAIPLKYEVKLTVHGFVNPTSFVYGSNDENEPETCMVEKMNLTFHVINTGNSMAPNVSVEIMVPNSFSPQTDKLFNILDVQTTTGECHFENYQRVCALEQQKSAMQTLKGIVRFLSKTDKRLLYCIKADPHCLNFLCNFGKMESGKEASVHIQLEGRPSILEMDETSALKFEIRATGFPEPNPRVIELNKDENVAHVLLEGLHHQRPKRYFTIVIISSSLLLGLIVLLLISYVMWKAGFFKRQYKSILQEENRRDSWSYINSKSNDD
T1 sequence (P05556 21-798): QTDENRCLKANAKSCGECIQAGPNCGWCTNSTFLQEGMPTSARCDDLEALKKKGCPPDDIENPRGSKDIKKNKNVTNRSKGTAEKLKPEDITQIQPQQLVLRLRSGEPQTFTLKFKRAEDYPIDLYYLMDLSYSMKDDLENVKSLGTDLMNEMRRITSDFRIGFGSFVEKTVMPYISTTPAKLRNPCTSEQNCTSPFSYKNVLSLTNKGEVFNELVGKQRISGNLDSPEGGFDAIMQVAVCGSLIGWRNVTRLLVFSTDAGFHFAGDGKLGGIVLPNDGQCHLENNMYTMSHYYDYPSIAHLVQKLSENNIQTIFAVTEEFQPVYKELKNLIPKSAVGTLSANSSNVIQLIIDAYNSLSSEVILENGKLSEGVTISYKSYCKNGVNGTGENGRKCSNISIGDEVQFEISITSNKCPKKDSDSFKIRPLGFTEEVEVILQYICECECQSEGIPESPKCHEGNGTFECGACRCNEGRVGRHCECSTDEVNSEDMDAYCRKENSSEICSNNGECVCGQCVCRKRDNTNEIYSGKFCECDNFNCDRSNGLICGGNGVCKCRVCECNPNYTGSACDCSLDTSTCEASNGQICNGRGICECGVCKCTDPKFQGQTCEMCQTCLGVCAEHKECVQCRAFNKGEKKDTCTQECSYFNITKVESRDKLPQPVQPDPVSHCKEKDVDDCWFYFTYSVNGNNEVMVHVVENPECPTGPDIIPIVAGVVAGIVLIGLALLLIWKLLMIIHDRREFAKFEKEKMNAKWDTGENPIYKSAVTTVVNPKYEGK

Molecule: c1cc(CN2CCCNCCNCCCNCC2)ccc1CN1CCCNCCNCCCNCC1 [AMD3100]
- human HPC content in the injected femur (IF) ([1]; IBM delivery, CD34+CD38+BFP+ HPC pre-treated with 100 ug/mL AMD3100, reduced to homing levels of IV delivery or nonIF): significantly reduced
- homing of IV injected cells ([1]; IV delivery, HPC pre-treated with AMD3100): note blocked

Molecule: pRRL.SIN.cPPT.MNDU3.eGFP.WPRE [GFP LV]
- lineage repopulation [2]: full multilineage repopulation
- gene transfer efficiency ([3]; CD34+CD38- HSC-enriched cells, experiment of FIG. 4): 69%
- gene transfer ([3]; CD34+CD38- cells, homing/engraftment experiment of FIGS. 5 and 10): 60%
- gene transfer ([3]; MPB CD34+HSPC, experiment of FIG. 1): 63-66%

Molecule: pRRL.SIN.cPPT.MNDU3.mTag2BFP-CXCR4.WPRE [BFP-CXCR4 LV vector]
- CXCR4 expression MFI [4]: 37,453
- homing of CD34+CD38- cells to bone marrow ([5]; IV administration, mixed with majority of CD34+38+ HPC): higher homing levels
- homing of CD34+CD38- cells to bone marrow ([5]; direct IBM transplantation, mixed with majority of HPC): remarkably improved homing advantage

Molecule: Cc1ccccc1NC(=O)Nc1ccc(CC(=O)N(C)[C@@H](CC(C)C)C(=O)NCC[C@H](NC(=O)[C@@H]2CCCN2S(=O)(=O)c2cc(Cl)cc(Cl)c2)C(=O)O)cc1 [BIO5192]
- CD34+38+ HPC homing pattern vs corresponding controls [6]: did not alter
